Results: article PMC7115580 (European Journal of Medicinal Chemistry, 2017)
Where a name gives a salt, the structure may show the parent alone. Read-outs that look alike come from different tables or passages of the source.

Legend:
[1] = metabolites of proguanil ref 32; cited from earlier work
[2] = target: wild type A/M2 proton channel (Influenza A virus, UniProt P0DOF5); type: biochemical; settings: 100 μM; TEVC, Xenopus oocytes; data not shown
HeLa cells [3] = tested on: HeLa cells
[4] = tested on: human airway epithelial Calu-3 cells; settings: data not shown
hDHFR = hDHFR (Homo sapiens, UniProt P00374); type: biochemical; settings: Lineweaver-Burk plot at 3, 6 and 12 µM; substrate DHF
Sequence of hDHFR (P00374 whole entry): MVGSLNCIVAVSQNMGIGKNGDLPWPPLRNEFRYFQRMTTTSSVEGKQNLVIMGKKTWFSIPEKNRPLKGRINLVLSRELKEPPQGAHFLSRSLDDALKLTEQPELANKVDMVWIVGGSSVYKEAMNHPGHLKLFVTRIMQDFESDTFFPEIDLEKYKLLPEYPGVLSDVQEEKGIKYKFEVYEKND

HeLa cells [5] = tested on: HeLa cells; remark: listed apart in the source
Punta Toro virus = experiment: microbe, parasite or virus in culture; type: cell-based; settings: Vero, read-out: Antiviral activity: EC50, Punta Toro virus
Reovirus-1 = experiment: organism not typed; type: cell-based; settings: Vero, read-out: Antiviral activity: EC50, Reovirus-1
Para-influenza-3 virus = experiment: organism not typed; type: cell-based; settings: Vero, read-out: Antiviral activity: EC50, Para-influenza-3 virus

Sequence of wild type A/M2 proton channel (P0DOF5 whole entry, looked up): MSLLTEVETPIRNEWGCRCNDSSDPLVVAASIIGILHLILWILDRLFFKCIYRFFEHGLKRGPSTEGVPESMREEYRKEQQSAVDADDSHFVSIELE

| SMILES | Cytotoxicity: MCC (HeLa cells [3]; HeLa cells, microscopy) [µM] | Cytotoxicity: MCC (Vero cells; Vero cells, microscopy) [µM] | also measured |
| --- | --- | --- | --- |
| N=C(N)NC(=N)Nc1ccc(Cl)cc1 [1-(4-chlorophenyl)biguanide] |  |  | Share of the total drug concentration in plasma [1]: ~23% |
| CC1(C)N=C(N)N=C(N)N1c1ccc(Cl)cc1 [Compound 1, cycloguanil, reference compound] | >100 | >100 | Inhibition of wild type M2 channel [2]: neither of the three compounds significantly inhibited; Share of the total drug concentration in plasma [1]: about 30%; Cytotoxicity MCC [4]: > 100 µM; Inhibition pattern towards the substrate (hDHFR): competitive inhibition pattern |
| CC1(C)N=C(N)N=C(N)N1c1ccccc1 [Compound 2] | >100 | >100 |  |
| Cc1ccc(N2C(N)=NC(N)=NC2(C)C)cc1 [Compound 3] | >100 | >100 |  |
| COc1ccc(N2C(N)=NC(N)=NC2(C)C)cc1 [Compound 4] | >100 | >100 |  |
| CC1(C)N=C(N)N=C(N)N1c1ccc(F)cc1 [Compound 5] | >100 | >100 |  |
| CC1(C)N=C(N)N=C(N)N1c1ccc(Br)cc1 [Compound 6] | >100 | >100 |  |
| CC1(C)N=C(N)N=C(N)N1c1ccc([N+](=O)[O-])cc1 [Compound 7] | >100 | >100 |  |
| CC1(C)N=C(N)N=C(N)N1c1ccc(C(=O)O)cc1 [Compound 8] | >100 | >100 |  |
| CCOC(=O)c1ccc(N2C(N)=NC(N)=NC2(C)C)cc1 [Compound 9] | >100 | >100 |  |
| CC1(C)N=C(N)N=C(N)N1c1ccccc1Cl [Compound 10] | >100 | >100 |  |
| CC1(C)N=C(N)N=C(N)N1c1cccc(Cl)c1 [Compound 11] | >100 |  | Cytotoxicity MCC [4]: > 100 µM |
| CC1(C)N=C(N)N=C(N)N1c1cccc(F)c1 [Compound 12, 4,6-Diamino-2,2-dimethyl-1-(3-fluorophenyl)-1,2-dihydrotriazine hydrochloride] |  |  | Cytotoxicity: MCC (HeLa cells [3]; human): ≥100 µM |
| CC1(C)N=C(N)N=C(N)N1c1cccc(Br)c1 [Compound 13] | ≥100 | >100 | Cytotoxicity MCC [4]: > 100 µM |
| CC1(C)N=C(N)N=C(N)N1c1cccc(C(F)(F)F)c1 [Compound 14] | ≥100 |  | Inhibition of wild type M2 channel [2]: neither of the three compounds significantly inhibited; Cytotoxicity MCC (HeLa cells [5]; dihydrofolic acid 1.0 μM): 20 µM; Cytotoxicity MCC (HeLa cells [5]; dihydrofolic acid 2.6 μM): 20 µM; Cytotoxicity MCC (HeLa cells [5]; dihydrofolic acid 16 μM): 20 µM; Cytotoxicity MCC (HeLa cells [5]; dihydrofolic acid 40 μM): 20 µM; Cytotoxicity MCC (HeLa cells [5]; dihydrofolic acid 400 μM): 20 µM; Cytotoxicity MCC (HeLa cells [5]; human): 20 µM; Cytotoxicity MCC (HeLa cells [5]; independent of whether dihydrofolic acid was present or not): 20 µM; Cytotoxicity MCC [4]: > 100 µM |
| CC1(C)N=C(N)N=C(N)N1c1ccc(Cl)cc1Cl [Compound 15] | >100 | >100 |  |

| SMILES | Cytotoxicity: MCC (HeLa cells [3]; HeLa cells, microscopy) [µM] | Cytotoxicity: MCC (Vero cells; Vero cells, microscopy) [µM] | also measured |
| --- | --- | --- | --- |
| CC1(C)N=C(N)N=C(N)N1c1ccc(Cl)c(Cl)c1 [Compound 16] | >100 |  | Inhibition of wild type M2 channel [2]: neither of the three compounds significantly inhibited; Cytotoxicity MCC [4]: > 100 µM |
| CC1(C)N=C(N)N=C(N)N1c1cc(C(F)(F)F)cc(C(F)(F)F)c1 [Compound 17, 4,6-Diamino-2,2-dimethyl-1-(3,5-ditrifluoromethylphenyl)-1,2-dihydrotriazine hydrochloride] |  |  | Cytotoxicity: MCC (HeLa cells [3]; human): ≥100 µM; Cytotoxicity: MCC (Vero cells; African green monkey): >100 µM |
| CCC1(C)N=C(N)N=C(N)N1c1ccc(Cl)cc1 (stereo not drawn) [Compound 18] | >100 | >100 |  |
| CC(C)C1(C)N=C(N)N=C(N)N1c1ccc(Cl)cc1 (stereo not drawn) [Compound 19] | >100 | >100 |  |
| NC1=NC2(CCCC2)N(c2ccc(Cl)cc2)C(N)=N1 [Compound 20] | >100 | >100 |  |
| NC1=NC2(CCCC2)N(c2cccc(Cl)c2)C(N)=N1 [Compound 21, 1-(3-Chlorophenyl)-2,2-cyclotetramethylene-4,6-diamino-1,2-dihydrotriazine hydrochloride] | ≥100 | >100 |  |
| NC1=NC2(CCCC2)N(c2cccc(C(F)(F)F)c2)C(N)=N1 [Compound 22, 2,2-Cyclotetramethylene-4,6-diamino-1-(3-trifluoromethylphenyl)-1,2-dihydrotriazine hydrochloride] | ≥100 | >100 |  |
| NC1=NC2(CCCCC2)N(c2cccc(Cl)c2)C(N)=N1 [Compound 24] | ≥100 | >100 |  |
| NC1=NC2(CCCCC2)N(c2cccc(C(F)(F)F)c2)C(N)=N1 [Compound 25, 2,2-Cyclopentamethylene-4,6-diamino-1-(3-trifluoromethylphenyl)-1,2-dihydrotriazine hydrochloride] | ≥100 | >100 | Cytotoxicity MCC [4]: > 100 µM |
| CCCC1N=C(N)N=C(N)N1c1ccc(Cl)cc1 (stereo not drawn) [Compound 27] | >100 | >100 |  |
| NC1=NC(c2ccccc2)N(c2ccc(Cl)cc2)C(N)=N1 (stereo not drawn) [Compound 28] |  | >100 |  |
| CC1(C)N=C(N)N=C(Nc2ccc(Cl)cc2)N1 [Compound 29] | >100 | >100 |  |
| [H]/N=C(\N/C(=N/[H])Nc1ccc(Cl)cc1)NC(C)C [Compound 30, proguanil, reference compound] | >100 | 20 |  |
| CCc1nc(N)nc(N)c1-c1ccc(Cl)cc1 [Compound 32, pyrimethamine, reference compound] | ≥100 |  | Cytotoxicity MCC [4]: > 100 µM |
| COc1c(C)c2c(c(O)c1C/C=C(\C)CCC(=O)O)C(=O)OC2 [Mycophenolic acid] |  |  | EC50 (Punta Toro virus): 20 µM; EC50 (Reovirus-1): 1.8 µM |
| NC(=O)c1ncn([C@@H]2O[C@H](CO)[C@@H](O)[C@H]2O)n1 [Ribavirin] |  |  | EC50 (Para-influenza-3 virus): 112 µM |
